Data published in article PMC9134315, “Systemic Administration of a Brain Permeable Cdk5 Inhibitor Alters Neurobehavior” (Frontiers in Pharmacology, 2022).
Where two headings read alike, the source gives them in different places.

Assays:
C57BL/6 mice = test: Tail suspension test; format: in vivo, mouse; conditions: 50 mg/kg, 6 h after injection
Method: The tail suspension test was conducted as previously described ([Plattner et al., 2015]). The mice were suspended by their tails for a total duration of 6 min and video-recorded. Post-hoc blind experimentalists quantified the duration and latency of immobility for each randomized video. The average quantitative determents of each observer were averaged to generate the final analytic values of motion.
Next, we tested the effects of 25–106 on mouse performance in the tail-suspension test to measure depressive-like phenotypes in mice ([Cryan et al., 2005]; [Can et al., 2012]). […] Thus, 25–106 modulated several neurobehavioral behaviors that have previously been linked to Cdk5.

[1] = Pharmacokinetic profile in mice after I.V. injection (LC-MS/MS of plasma, brain, liver, kidney); format: in vivo, mouse; conditions: for AUC(0-t): read-out: AUC24h; for concentration at 24 h: read-out: Clast; for k el: read-out: Ke (converted)
Method: The wild-type group housed male C57BL/6 mice 10–12 weeks of age were used for all in vivo, ex vivo, and behavioral studies. This age range was selected to be consistent with previous studies of conditional Cdk5 knockout mice ([Plattner et al., 2015]). 25–106 was administered in a 20-fold dose range intravenously (I.V.) at 10, 50, 100, and 200 mg/kg for pharmacokinetic studies. This delivery mode was used as I.V. injections to avoid first-pass drug metabolism observed using other injection methods ([Pond and Tozer, 1984]). […] All animal experiments were performed under approved protocols by the University of Alabama at Birmingham (UAB) Institutional Animal Care and Use Committees and in accordance with the guidelines of the Animal Welfare Act and the Guide for the Care and Use of Laboratory Animals.
A quantitative determination of 25–106 in mouse plasma and tissue homogenate was accomplished by the use of protein precipitation and high-performance liquid chromatography with tandem mass spectrometry detection (LC-MS/MS). 5-(N,N-hexamethylene) amiloride (HMA) was used as the internal standard (IS). 25–106 and IS were typically extracted from 50 µL of mouse plasma or tissue homogenate using protein precipitation with methanol. The extracts were analyzed by reverse-phase chromatography using an ACE Excel 3 C18-PFP column under isocratic conditions at a flow rate of 500 μL/min. The column temperature was maintained at 40°C. The mobile phase A consisted of 0.1% formic acid in water, and the mobile phase B was acetonitrile. A triple–quadrupole mass spectrometer (AB Sciex 5,000) equipped with TurboV IonSpray operating in positive-ion mode was used. Column effluents were analyzed by multiple reaction monitoring (MRM). The precursor/product transitions are 346.1 to 137.1 m/z for 25–106 and 312.37 to 129.5 m/z for IS. The calibration curve was fit using weighted (1/x^2) linear regression analysis of the 25–106/IS peak area ratio vs. the 25–106 concentration from 1.0–80.0 ng/ml (ng/g for tissue) for the low curve and 80.0–10,000 ng/ml (ng/g for tissue) for the high curve. The concentrations of incurred and quality control samples were calculated with the same regression analysis, and the results were reported in ng/mL (plasma) or ng/g (tissue) of 25–106.
To assess the pharmacokinetic and pharmacodynamic parameters of 25–106 in vivo, we utilized the LC-MS/MS detection method established above (see Figure 5). The mice were administered IV injections of 25–106 doses of 10, 50, 100, or 200 mg/kg. The animals were euthanized, and organs were harvested at 1, 2, 6, and 24 h post injection. Within the same experiment, tissues were used for biochemical analysis of 25–106 effects on Cdk5 activity (see Figures 3A, B).

[2] = male, C57BL/6, mouse, iv, brain, 10 mg/kg I.V.
[3] = male, C57BL/6, mouse, iv, brain, 50 mg/kg I.V.
[4] = male, C57BL/6, mouse, iv, brain, 100 mg/kg I.V.
[5] = male, C57BL/6, mouse, iv, brain, 200 mg/kg I.V.
[6] = male, C57BL/6, mouse, iv, kidney, 50 mg/kg I.V.
[7] = male, C57BL/6, mouse, iv, kidney, 100 mg/kg I.V.
[8] = male, C57BL/6, mouse, iv, kidney, 200 mg/kg I.V.
[9] = male, C57BL/6, mouse, iv, plasma, 10 mg/kg I.V.
[10] = male, C57BL/6, mouse, iv, plasma, 50 mg/kg I.V.
[11] = male, C57BL/6, mouse, iv, plasma, 100 mg/kg I.V.
[12] = male, C57BL/6, mouse, iv, plasma, 200 mg/kg I.V.

## COc1cc(CC(=O)Nc2cc(C3CCC3)[nH]n2)cc(OC)c1OC [25–106, N-(5-cyclobutyl-1H-pyrazol-3-yl)-2-(3,4,5-trimethoxyphenyl)acetamide]
C57BL/6 mice
  latency to immobility vs. vehicle: increased latency
  total immobility time vs. vehicle: reduction in total immobility time
[1]; 24 h after injection, I.V.
  detectability in the brain and plasma: remaining detectable
[1]; LC-MS/MS, mice
  demethylated metabolites detected: No demethylated metabolite structures
[1]; brain, 10 mg/kg I.V.
  V: 77.39 ± 25.63 L
[1]; brain, 50 mg/kg I.V.
  V: 151.24 ± 58.36 L
[1]; brain, 50 mg/kg I.V., 50 mg/kg
  CL: 16.57 ± 4.19 L/h
[1]; brain, 100 mg/kg I.V.
  V: 126.99 ± 46.68 L
[1]; brain, 100 mg/kg I.V., 100 mg/kg
  CL: 17.75 ± 6.77 L/h
[1]; brain, 200 mg/kg I.V.
  V: 76.07 ± 73.66 L
[1]; kidney, 10 mg/kg I.V.
  Clast: 163 ± 41.67 ng/mL
[1]; kidney, 50 mg/kg I.V.
  Clast: 109.33 ± 42.90 ng/mL
  V: 78.88 ± 16.88 L
[1]; kidney, 100 mg/kg I.V.
  Clast: 119.88 ± 51.83 ng/mL
  V: 172.86 ± 89.05 L
[1]; kidney, 200 mg/kg I.V.
  Clast: 146.45 ± 87.11 ng/mL
  V: 163.98 ± 55.79 L
[1]; liver, 10 mg/kg I.V.
  Clast: 85.18 ± 32.60 ng/mL
[1]; liver, 50 mg/kg I.V.
  Clast: 252.73 ± 200.06 ng/mL
[1]; liver, 100 mg/kg I.V.
  Clast: 150.9 ± 103.92 ng/mL
[1]; liver, 200 mg/kg I.V.
  Clast: 310.9 ± 247.48 ng/mL
[1]; male, C57BL/6, mouse, brain, iv, 10 mg/kg, 10 mg/kg I.V.
  clearance: 66.3 mL/min
[1]; male, C57BL/6, mouse, brain, iv, 10 mg/kg, brain, 10 mg/kg I.V., read-out: Cmax
  Cmax: 101 ± 23.6 ng/g
[1]; male, C57BL/6, mouse, brain, iv, 50 mg/kg, 50 mg/kg I.V.
  clearance: 275 mL/min
[1]; male, C57BL/6, mouse, brain, iv, 50 mg/kg, brain, 50 mg/kg I.V., read-out: Cmax
  Cmax: 118 ± 76.7 ng/g
[1]; male, C57BL/6, mouse, brain, iv, 100 mg/kg, 100 mg/kg I.V.
  clearance: 295 mL/min
[1]; male, C57BL/6, mouse, brain, iv, 100 mg/kg, brain, 100 mg/kg I.V., read-out: Cmax
  Cmax: 377 ± 289 ng/g
[1]; male, C57BL/6, mouse, brain, iv, 200 mg/kg, 200 mg/kg I.V.
  clearance: 188 mL/min
[1]; male, C57BL/6, mouse, brain, iv, 200 mg/kg, brain, 200 mg/kg I.V., read-out: Cmax
  Cmax: 669 ± 316 ng/g
[1]; [2]
  half-life: 17.2 ± 10.4 h
  AUC(0-t): 80 ± 20 ng·h/mL
  concentration at 24 h: 2.27 ± 1.44 ng/mL
  k el: 1.67e-05 s⁻¹
[1]; [3]
  half-life: 6.23 ± 1.12 h
  AUC(0-t): 90 ± 30 ng·h/mL
  concentration at 24 h: 2.73 ± 1.75 ng/mL
  k el: 3.06e-05 s⁻¹
[1]; [4]
  half-life: 5.03 ± 0.69 h
  AUC(0-t): 180 ± 70 ng·h/mL
  concentration at 24 h: 2.88 ± 1.16 ng/mL
  k el: 3.89e-05 s⁻¹
[1]; [5]
  half-life: 4.39 ± 1.19 h
  AUC(0-t): 960 ± 860 ng·h/mL
  concentration at 24 h: 14 ± 14.5 ng/mL
  k el: 4.72e-05 s⁻¹
[1]; male, C57BL/6, mouse, iv, kidney, 10 mg/kg I.V.
  AUC(0-t): 6300 ± 1690 ng·h/mL
[1]; [6]
  half-life: 10.2 ± 2.99 h
  AUC(0-t): 7640 ± 1280 ng·h/mL
  k el: 1.94e-05 s⁻¹
[1]; [7]
  half-life: 13 ± 4.56 h
  AUC(0-t): 9420 ± 3060 ng·h/mL
  k el: 1.67e-05 s⁻¹
[1]; [8]
  half-life: 9.65 ± 5.34 h
  AUC(0-t): 14400 ± 4630 ng·h/mL
  k el: 2.5e-05 s⁻¹
[1]; male, C57BL/6, mouse, iv, liver, 10 mg/kg I.V.
  AUC(0-t): 3080 ± 1010 ng·h/mL
[1]; male, C57BL/6, mouse, iv, liver, 50 mg/kg I.V.
  AUC(0-t): 2760 ± 980 ng·h/mL
[1]; male, C57BL/6, mouse, iv, liver, 100 mg/kg I.V.
  AUC(0-t): 3320 ± 1280 ng·h/mL
[1]; male, C57BL/6, mouse, iv, liver, 200 mg/kg I.V.
  AUC(0-t): 5440 ± 1950 ng·h/mL
[1]; [9]
  half-life: 6.5 ± 2.36 h
  AUC(0-t): 5710 ± 2260 ng·h/mL
  concentration at 24 h: 16.3 ± 7 ng/mL
  k el: 3.06e-05 s⁻¹
[1]; [10]
  half-life: 7.48 ± 0.41 h
  AUC(0-t): 6930 ± 930 ng·h/mL
  concentration at 24 h: 69.7 ± 16.2 ng/mL
  k el: 2.5e-05 s⁻¹
[1]; [11]
  half-life: 8.37 ± 1.77 h
  AUC(0-t): 8380 ± 780 ng·h/mL
  concentration at 24 h: 79.2 ± 16 ng/mL
  k el: 2.5e-05 s⁻¹
[1]; [12]
  half-life: 11 ± 6.38 h
  AUC(0-t): 12000 ± 1740 ng·h/mL
  concentration at 24 h: 149 ± 94.1 ng/mL
  k el: 2.22e-05 s⁻¹
[1]; male, C57BL/6, mouse, kidney, iv, 10 mg/kg, kidney, 10 mg/kg I.V., read-out: Cmax
  Cmax: 2950 ng/g
[1]; male, C57BL/6, mouse, kidney, iv, 50 mg/kg, 50 mg/kg I.V.
  clearance: 92.5 mL/min
[1]; male, C57BL/6, mouse, kidney, iv, 50 mg/kg, kidney, 50 mg/kg I.V., read-out: Cmax
  Cmax: 1190 ng/g
[1]; male, C57BL/6, mouse, kidney, iv, 100 mg/kg, 100 mg/kg I.V.
  clearance: 154 mL/min
[1]; male, C57BL/6, mouse, kidney, iv, 100 mg/kg, kidney, 100 mg/kg I.V., read-out: Cmax
  Cmax: 2580 ng/g
[1]; male, C57BL/6, mouse, kidney, iv, 200 mg/kg, 200 mg/kg I.V.
  clearance: 227 mL/min
[1]; male, C57BL/6, mouse, kidney, iv, 200 mg/kg, kidney, 200 mg/kg I.V., read-out: Cmax
  Cmax: 4660 ng/g
[1]; male, C57BL/6, mouse, liver, iv, 10 mg/kg, liver, 10 mg/kg I.V., read-out: Cmax
  Cmax: 1760 ± 526 ng/g
[1]; male, C57BL/6, mouse, liver, iv, 50 mg/kg, liver, 50 mg/kg I.V., read-out: Cmax
  Cmax: 513 ± 22 ng/g
[1]; male, C57BL/6, mouse, liver, iv, 100 mg/kg, liver, 100 mg/kg I.V., read-out: Cmax
  Cmax: 868 ± 378 ng/g
[1]; male, C57BL/6, mouse, liver, iv, 200 mg/kg, liver, 200 mg/kg I.V., read-out: Cmax
  Cmax: 2810 ng/g
[1]; male, C57BL/6, mouse, plasma, iv, 10 mg/kg, 10 mg/kg I.V.
  clearance: 1 mL/min
[1]; male, C57BL/6, mouse, plasma, iv, 10 mg/kg, plasma, 10 mg/kg I.V., read-out: Cmax
  Cmax: 2570 ng/mL
[1]; male, C57BL/6, mouse, plasma, iv, 50 mg/kg, 50 mg/kg I.V.
  clearance: 3.33 mL/min
[1]; male, C57BL/6, mouse, plasma, iv, 50 mg/kg, plasma, 50 mg/kg I.V., read-out: Cmax
  Cmax: 1380 ng/mL
[1]; male, C57BL/6, mouse, plasma, iv, 100 mg/kg, 100 mg/kg I.V.
  clearance: 5.33 mL/min
[1]; male, C57BL/6, mouse, plasma, iv, 100 mg/kg, plasma, 100 mg/kg I.V., read-out: Cmax
  Cmax: 2580 ng/mL
[1]; male, C57BL/6, mouse, plasma, iv, 200 mg/kg, 200 mg/kg I.V.
  clearance: 7.17 mL/min
[1]; male, C57BL/6, mouse, plasma, iv, 200 mg/kg, plasma, 200 mg/kg I.V., read-out: Cmax
  Cmax: 2320 ng/mL
[1]; plasma, 10 mg/kg I.V.
  V: 0.49 ± 0.08 L
[1]; plasma, 50 mg/kg I.V.
  V: 2.14 ± 0.34 L
[1]; plasma, 100 mg/kg I.V.
  V: 3.85 ± 0.55 L
[1]; plasma, 100 mg/kg I.V., 100 mg/kg
  Cmax: 2,577.50 ± 1,004.73 Ng/ml
[1]; plasma, 200 mg/kg I.V.
  V: 6.12 ± 2.08 L
[1]; plasma, 200 mg/kg I.V., 200 mg/kg
  Cmax: 2,322.50 ± 972.71 Ng/ml
